Earlier results in patent US20090098211A1, “SOLID DOSAGE FORMS” (priority 2007, published 2009).

solubility in water (in words) (water): practically insoluble in water
water solubility (water at 25° C.): about 2 μg per mL
Structure (SMILES): CN1CC(=O)N2[C@H](c3ccc4c(c3)OCO4)c3[nH]c4ccccc4c3C[C@@H]2C1=O [Tadalafil, (6R-trans)-6-(1,3-benzodioxol-5-yl)-2,3,6,7,12,12a-hexahydro-2-methyl-pyrazino[1′,2′:1,6]pyrido[3,4-b]indole-1,4-dione]
